Measurements taken from patent US9416182B2, “Anti-TNF-anti-IL-17 bispecific antibodies” (Eli Lilly and Company, priority 2013, dated 2016).

Tests used:
[1] = test system: human skin grafts on immunodeficient mice; test: Humanized psoriasis mouse model (human skin grafts, PBMC injection); assay type: in vivo; conditions: twice daily topical; after three weeks
Description: A humanized mouse model of psoriasis is a model that involves grafting of human non-lesional skin biopsies from psoriasis patients onto the back skin of immunodeficient mice. After the human skin has grafted (3 to 4 weeks later), T-cell activated human peripheral blood mononuclear cells (PBMCs) from the same donor are intradermally injected into the graft to induce psoriasis-like epidermal thickening (Wrone-Smith and Nickoloff J., Clin Invest. 15; 98(8):1878-87 (1996)).
After three weeks the mice are euthanized, the grafted skin was isolated, and the thickness of the epidermis is measured.

[2] = test system: human TNFα and human IL-17; test: Inhibition of CXCL1 production from HT-29 cells induced by combination of IL-17 and TNF; assay type: cell-based; conditions: antibodies at fixed dose of 4 nM, 3 pM TNFα and 200 pM IL-17
Method: As described above, HT-29 cells are human colorectal adenocarcinoma epithelial cells that naturally express the IL-17 and TNF receptors. Incubation of HT-29 cells with human TNFα and human IL-17 results in the production of CXCL1, which can be measured using a commercially available ELISA.
Testing is carried out in five replicate wells per treatment. Assay medium is used for “medium alone” and “IL-17+TNF alone”. Anti-IL-17 antibody (U.S. Pat. No. 7,838,638); anti-TNFα antibody (adalimumab); and combination of anti-IL-17 antibody/anti-TNF antibody are used as controls in the assay. Control antibodies are tested at the same molar range as the bispecific antibody. […]
HT-29 cells are routinely cultured in assay medium [McCoy's 5A containing 10% FBS, penicillinG (0.2 U/mL) and streptomycin (0.2 mcg/mL)]. […] Cell density is measured with Invitrogen Countess, and 20,000 HT-29 cells (in 100 μL) are added to each of the 96-well plates. […]
At the end of the assay, the plates are centrifuged (500×g for 5 minutes at room temperature), and the cell culture medium is transferred to polypropylene 96-well plates, which are sealed and frozen at −80° C. […] CXCL1 levels in medium are measured with a CXCL1 sandwich ELISA (R&D Systems DuoSet #DY275), as per the manufacturer's instructions. At the end of the ELISA reactions, plates are read at 450 nm on a microplate reader (Molecular Devices VersaMax Tunable).

human TNFα = human TNFα (Homo sapiens, UniProt P01375); test: Inhibition of human TNFα-induced production of CXCL1 in vivo; parameters: species or system mouse; conditions: C57BI/6J mice; 16.7 nmol/kg subcutaneously; TNFα challenge two days later; plasma two hours after challenge
Method: Two days later, mice receive a single intraperitoneal injection of human IL-17 (3 μg/mouse) or human TNFα (1 μg/mouse). Two hours after cytokine challenge, the mice are sacrificed and plasma is analyzed for CXCL1 using a commercial ELISA.

[3] = test system: membrane bound human TNFα; test: Inhibition of membrane bound human TNFα induced cytotoxicity in L929 cells; assay type: cell-based; conditions: average of 3 independent experiments+/−SEM; read-out: IC50, killing of L929 cells by human non-cleavable membrane bound TNFα CHO cells
Method: The non-cleavable TNFα construct is stably transfected to Chinese hamster ovary (CHO) cells. These cells express membrane bound TNFα as shown by flow cytometry. Incubation of L929 cells with CHO cells expressing human non-cleavable membrane bound TNFα results in rapid L929 cell death.
CHO cells expressing membrane bound human TNFα are routinely maintained in selection medium (AM2001 media, an internal CHO growth media without MSX, 8 mM glutamine, GS supplement, HT supplement with 500 μg/mL G418). On the day of the assay, the cells are counted, rinsed with 1×PBS (no Ca^++ or Mg^++), centrifuged at 215×g for 5 mM and re-suspended at 50,000 cells/mL in L929 assay medium together with Actinomycin-D (6.25 μg/mL). 500 cells (in 10 μL) of cell suspension are added to each concentration of antibody mixtures that were incubated for 60 minutes at 37° C., 95% relative humidity, 5% CO2. […] The cell death is measured using an MTT cytotoxicity assay as described above for soluble TNFα L929 assay.

Sequence of human TNFα (P01375 77-233 limits assumed): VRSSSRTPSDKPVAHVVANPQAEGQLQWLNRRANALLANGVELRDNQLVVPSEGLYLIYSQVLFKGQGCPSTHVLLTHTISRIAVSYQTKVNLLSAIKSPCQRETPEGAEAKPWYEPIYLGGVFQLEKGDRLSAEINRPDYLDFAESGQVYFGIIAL
Sequence of membrane bound human TNFα (P01375 89-233 limits assumed): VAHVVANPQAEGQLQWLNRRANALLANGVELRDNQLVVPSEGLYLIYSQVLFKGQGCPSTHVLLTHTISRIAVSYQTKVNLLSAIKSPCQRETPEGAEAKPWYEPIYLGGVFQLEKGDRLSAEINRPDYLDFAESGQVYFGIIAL

C[C@H]1C[C@H]2[C@@H]3CCC4=CC(=O)C=C[C@]4(C)[C@@]3(F)[C@@H](O)C[C@]2(C)[C@@]1(O)C(=O)CO [Betamethasone, betamethasone]
Mean Epidermal Thickness [1]: 74.9 μm

adalimumab [anti-TNFα]
percent human CXCL1 left after incubation (TNF+IL-17 alone being 100%) [2]: 8.97+/−2.65%

adalimumab with IgG4 isotype: TNFα neutralizing antibody (adalimumab with IgG4 isotype), positive control in L929 assays and in vivo CXCL1 (Table 2)
Average % inhibition of human TNFα-induced CXCL1 production in vivo (human TNFα): 89.4 ± 2%
IC50 [3]: 0.669 nM
